From publication PMC3767324, “Synthesis, Characterization, and BSA Binding Studies of Some New Benzamides Related to Schiff Base” (ISRN Organic Chemistry, 2013)

What was measured:
[1] = target: T1, bovine serum albumin (BSA) (Bos taurus, UniProt P02769); experiment: energy transfer from BSA to compound (Forster theory); type: binding; settings: for J (spectral overlap): BSA emission / compound UV absorption; for R 0 (critical energy transfer distance): K^2 = 2/3, N = 1.311, Φ = 0.118
T1 construct: Bovine serum albumin (BSA), one of the major components in plasma protein; purchased Sigma Aldrich Bangalore
Excerpt: The binding distance (r) between a protein residue (donor) and a bound drug molecule (acceptor) can be calculated from Foster's nonradiative energy transfer theory. The efficiency of energy transfer E and the distance between the acceptor and donor r can be defined as the following equation [36]: (4) E=1−(F/F0)=R06/R06+r^6, where r is the distance between the acceptor and donor; F and F 0 are the fluorescence intensities of BSA in the presence of and in the absence of quencher, respectively; R 0 is the critical energy transfer distance when the transfer efficiency is 50%. It is given by the following equation: (5) R06=8.8×10^−25K^2N^−4ΦJ.
K ^2 is a factor describing the spatial orientation factor related to the geometry of the donor and acceptor of dipoles; N is the refractive index of medium; Φ is the fluorescence quantum yield of the donor in the absence of acceptor; J is the effect of spectra overlap between the fluorescence emission spectrum of the donor and the UV-vis absorption spectrum of the acceptor, and J can be calculated by (6): (6) J=f(λ)ε(λ)λ^4Δλ/ΣF(λ)Δλ, where F(λ) is the corrected fluorescence intensity of the donor in the wavelength range from λ to λ + Δλ and ε(λ) is the molar absorption coefficient of the acceptor at wavelength λ. In the present case, K ^2 = 2/3, N = 1.311, and Φ = 0.118 for BSA molecules, respectively.

[2] = target: T1, bovine serum albumin (BSA); experiment: fluorescence quenching of BSA, binding parameters; settings: for n (number of binding sites) / K sv (Stern-Volmer quenching constant) / K q (quenching rate constant) / shift of BSA fluorescence emission maximum wavelength: 298 K; for K sv (Stern-Volmer quenching constant): BSA 1.00 × 10^−5 mol L^−1, Tris-HCl pH 7.4; for K q (quenching rate constant): τ0 = 10^−8 s; for shift of BSA fluorescence emission maximum wavelength: excitation 280 nm, emission around 340 nm
Method: All the chemicals and solvents were of AR grade. Solvents were used as supplied by commercial sources without any further purification. BSA (essentially fatty-acid-free) was purchased from Sigma Aldrich Bangalore and stored in refrigerator at 4.0°C. BSA solution was prepared in the Tris-HCl buffer solution (0.05 mol L^−1 Tris, 0.15 mol L^−1 NaCl, pH 7.4) and it was kept in the dark at 298 K. The compounds were prepared as stock solutions using DMF. All other reagents were of analytical reagent grade, and double-distilled water was used during the experiment.
For each of the […] active compounds (5a, 5c, 5g, 5h, 5i, and 5j), the binding parameters with BSA molecules were measured by fluorescence spectroscopy. A solution (2.5 mL) containing 1.00 × 10^−5 mol L^−1 BSA was titrated by successive additions of 1.00 × 10^−3 mol L^−1 NABP stock solution and the concentration of NABP varied from 0 to 3.0 × 10^−5 mol L^−1 (a–g). Titrations were done manually by using microinjector. Fluorescence intensity was measured (excitation at 280 nm and emission at 340 nm). All experiments were performed at 298 K.
In order to investigate the quenching mechanism, the fluorescence quenching data K 0 and n were analyzed by the Stern-Volmer equation (2): (2) F0/F=1+Ksv[Q]=1+Kqτ0[Q], where F 0 and F denote the steady-state fluorescence intensities in the absence and in the presence of quencher, respectively, K 0 is binding constant of BSA, [Q] is the equilibrium concentration of the quencher, and n is the number of binding sites. The average lifetime, τ 0 of the molecule without quencher is 10^−8 s.
When the quenching mechanism is static, the binding parameters between BSA and compounds can be determined using (3): (3) log(F0−F)/F=log Ka+n log[Q].
The plot of log[(F 0 − F)/F] versus log[NABP], binding constant K a, and binding sites n were calculated from the intercept and slope. […] The value of n approximately equaled 1.

T1 sequence (P02769 25-607): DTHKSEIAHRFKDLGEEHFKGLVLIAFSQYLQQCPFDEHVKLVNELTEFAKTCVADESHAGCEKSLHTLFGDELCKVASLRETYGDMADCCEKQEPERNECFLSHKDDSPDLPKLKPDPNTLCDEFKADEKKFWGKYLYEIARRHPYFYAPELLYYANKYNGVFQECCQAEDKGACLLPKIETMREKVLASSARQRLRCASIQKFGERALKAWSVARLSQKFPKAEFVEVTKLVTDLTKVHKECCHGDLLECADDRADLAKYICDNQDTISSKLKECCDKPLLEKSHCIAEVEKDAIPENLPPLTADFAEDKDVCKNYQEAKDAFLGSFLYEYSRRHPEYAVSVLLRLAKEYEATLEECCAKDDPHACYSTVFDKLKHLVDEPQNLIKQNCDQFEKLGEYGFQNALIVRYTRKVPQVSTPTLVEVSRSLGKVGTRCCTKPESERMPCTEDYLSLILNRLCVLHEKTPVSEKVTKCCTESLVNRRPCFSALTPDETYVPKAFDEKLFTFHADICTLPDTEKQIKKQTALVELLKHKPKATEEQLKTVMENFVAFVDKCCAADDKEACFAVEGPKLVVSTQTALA

| SMILES | E (efficiency of energy transfer) [1] | r (binding distance between donor BSA and acceptor) [1] [nm] | J (spectral overlap) [1] | R 0 (critical energy transfer distance) [1] [nm] | Kd [2] [µM] | n (number of binding sites) [2] | K sv (Stern-Volmer quenching constant) [2] [L/mol] | K q (quenching rate constant) [2] [M⁻¹ s⁻¹] | shift of BSA fluorescence emission maximum wavelength [2] |
| --- | --- | --- | --- | --- | --- | --- | --- | --- | --- |
| CC(=O)N(C(=O)c1cc(F)ccc1F)c1ccc(N=Cc2cc3ccccc3o2)cc1 [Compound 5a, N-acetyl-N-(4-((benzofuran-2-ylmethylene)amino)phenyl)-2,5-difluorobenzamide] | 0.11 | 3.77 | 1.05 × 10^−14 cm^3 L mol^−1 | 2.51 | 1.9 | 1.180 | 99600 | 9.96e+12 | slight blue shift |
| CC(=O)N(C(=O)c1ccccc1)c1ccc(N=Cc2cc3ccccc3o2)cc1 [Compound 5c, N-acetyl-N -(4-((benzofuran-2-ylmethylene)amino)phenyl)benzamide] | 0.14 | 4.11 | 3.05 × 10^−14 cm^3 L mol^−1 | 3.04 | 38.6 | 0.855 | 19300 | 1.93e+12 | red shift |
| CC(=O)N(C(=O)c1cc(F)c(F)c(F)c1)c1ccc(N=Cc2cc3ccccc3o2)cc1 [Compound 5g, N-acetyl-N-(4-(benzofuran-2-ylmethyleneamino)phenyl)-3,4,5-trifluorobenzamide] | 0.31 | 3.07 | 2.37 × 10^−14 cm^3 L mol^−1 | 2.86 | 6.37 | 1.281 | 79800 | 7.98e+12 | slight blue shift |
| CC(=O)N(C(=O)c1cc(F)cc(F)c1)c1ccc(N=Cc2cc3ccccc3o2)cc1 [Compound 5h, N-acetyl-N-(4-((benzofuran-2-ylmethylene)amino)phenyl)-3,5-difluorobenzamide] | 0.15 | 2.93 | 4.91 × 10^−14 cm^3 L mol^−1 | 2.16 | 12.7 | 1.136 | 21300 | 2.13e+12 | red shift |
| COc1ccc(C(=O)N(C(C)=O)c2ccc(N=Cc3cc4ccccc4o3)cc2)cc1 [Compound 5i, N-acetyl-N-(4-(benzofuran-2-ylmethyleneamino)phenyl)-4-methoxybenzamide] | 0.33 | 3.17 | 2.79 × 10^−14 cm^3 L mol^−1 | 2.83 | 1.57 | 1.208 | 74000 | 7.4e+12 | slight blue shift |
| CC(=O)N(C(=O)c1ccc(O)cc1)c1ccc(N=Cc2cc3ccccc3o2)cc1 [Compound 5j, N-acetyl-N-(4-((benzofuran-2-ylmethylene)amino)phenyl)-4-hydroxybenzamide] | 0.14 | 4.09 | 4.26 × 10^−14 cm^3 L mol^−1 | 3.02 | 91.7 | 0.961 | 23900 | 2.39e+12 | red shift |
